Experimental data reported in PMC10010643 (Cancer Chemotherapy and Pharmacology, 2023).
“And” between values parts separate entries of the source, which are not always exact repeats. Identical values can stand only once.

Tests used:
[1] = Safety and tolerability, Part B multiple ascending-dose phase in healthy participants; format: in vivo, human
Experimental: Following review of safety, tolerability, and PK data from cohorts A1–A6, participants received twice-daily doses (BID) under fasted conditions on days 1–9 and a final single dose in the morning of day 10. […] There was one treatment period and all participants stayed at the CRU from day − 1 until the morning of day 11 (24 h after the final dose on day 10). All were to return for a follow-up visit 5–7 days after their final dose.
Safety and tolerability assessments included adverse event (AE) monitoring, physical examinations, laboratory assessments (hematology, clinical chemistry, and urinalysis), vital signs (blood pressure, pulse rate, and body temperature) and ECG.
No formal statistical assessment was performed for the safety analysis.

[2] = system: programmed cell death protein 1 and PD-L1; conditions: pembrolizumab and atezolizumab; cited from earlier work

OC[C@H]1O[C@H](Sc2cncc(Br)c2)[C@H](O)[C@@H](n2cc(-c3cc(F)c(F)c(F)c3)nn2)[C@H]1O [GB1211]
Number of TEAEs ([1]; 50 mg BID): 8
Participants discontinued due to TEAEs ([1]; 50 mg BID): 0 n (%)
Participants with SAEs ([1]; 50 mg BID): 0 n (%)
Participants with TEAEs ([1]; 50 mg BID): 4 (50.0) n (%) and 4 (50.0%) n (%)
Severity (all TEAEs): Mild ([1]; 50 mg BID): 2 (25.0) n (%)
Severity (all TEAEs): Moderate ([1]; 50 mg BID): 2 (25.0) n (%)
Severity (all TEAEs): Severe ([1]; 50 mg BID): 0 n (%)
Severity (all TEAEs): Total ([1]; 50 mg BID): 4 (50.0) n (%)
Severity (possibly related to study treatment): Mild ([1]; 50 mg BID): 2 (25.0) n (%)
Severity (possibly related to study treatment): Moderate ([1]; 50 mg BID): 2 (25.0) n (%)
Severity (possibly related to study treatment): Severe ([1]; 50 mg BID): 0 n (%)
Severity (possibly related to study treatment): Total ([1]; 50 mg BID): 4 (50.0) n (%)
TEAE Abdominal distension, participants ([1]; 50 mg BID): 0 n (%)
TEAE Abdominal pain upper, participants ([1]; 50 mg BID): 0 n (%)
TEAE Abdominal pain, participants ([1]; 50 mg BID): 0 n (%)
TEAE Arthralgia, participants ([1]; 50 mg BID): 0 n (%)
TEAE Constipation, participants ([1]; 50 mg BID): 0 n (%)
TEAE Dysuria, no. of AEs ([1]; 50 mg BID): 1
TEAE Dysuria, participants ([1]; 50 mg BID): 1 (12.5%) n (%)
TEAE Gastrointestinal disorders, participants ([1]; 50 mg BID): 0 n (%)
TEAE Headache, no. of AEs ([1]; 50 mg BID): 5
TEAE Headache, participants ([1]; 50 mg BID): 4 (50.0%) n (%)
TEAE Injury, poisoning and procedural complications, no. of AEs ([1]; 50 mg BID): 1
TEAE Injury, poisoning and procedural complications, participants ([1]; 50 mg BID): 1 (12.5%) n (%)
TEAE Limb injury, no. of AEs ([1]; 50 mg BID): 1
TEAE Limb injury, participants ([1]; 50 mg BID): 1 (12.5%) n (%)
TEAE Menstruation irregular, no. of AEs ([1]; 50 mg BID): 1
TEAE Menstruation irregular, participants ([1]; 50 mg BID): 1 (12.5%) n (%)
TEAE Musculoskeletal and connective tissue disorders, participants ([1]; 50 mg BID): 0 n (%)
TEAE Nervous system disorders, no. of AEs ([1]; 50 mg BID): 5
TEAE Nervous system disorders, participants ([1]; 50 mg BID): 4 (50.0%) n (%)
TEAE Pain in extremity, participants ([1]; 50 mg BID): 0 n (%)
TEAE Pollakiuria, participants ([1]; 50 mg BID): 0 n (%)
TEAE Renal and urinary disorders, no. of AEs ([1]; 50 mg BID): 1
TEAE Renal and urinary disorders, participants ([1]; 50 mg BID): 1 (12.5%) n (%)
TEAE Reproductive system and breast disorders, no. of AEs ([1]; 50 mg BID): 1
TEAE Reproductive system and breast disorders, participants ([1]; 50 mg BID): 1 (12.5%) n (%)
Number of TEAEs considered moderate ([1]; 50 mg BID cohort): Two
Number of TEAEs ([1]; 100 mg BID): 8
Participants discontinued due to TEAEs ([1]; 100 mg BID): 0 n (%)
Participants with SAEs ([1]; 100 mg BID): 0 n (%)
Participants with TEAEs ([1]; 100 mg BID): 3 (37.5) n (%) and 3 (37.5%) n (%)
Severity (all TEAEs): Mild ([1]; 100 mg BID): 3 (37.5) n (%)
Severity (all TEAEs): Moderate ([1]; 100 mg BID): 0 n (%)
Severity (all TEAEs): Severe ([1]; 100 mg BID): 0 n (%)
Severity (all TEAEs): Total ([1]; 100 mg BID): 3 (37.5) n (%)
Severity (possibly related to study treatment): Mild ([1]; 100 mg BID): 3 (37.5) n (%)
Severity (possibly related to study treatment): Moderate ([1]; 100 mg BID): 0 n (%)
Severity (possibly related to study treatment): Severe ([1]; 100 mg BID): 0 n (%)
Severity (possibly related to study treatment): Total ([1]; 100 mg BID): 3 (37.5) n (%)
TEAE Abdominal distension, no. of AEs ([1]; 100 mg BID): 1
TEAE Abdominal distension, participants ([1]; 100 mg BID): 1 (12.5%) n (%)
TEAE Abdominal pain upper, no. of AEs ([1]; 100 mg BID): 1
TEAE Abdominal pain upper, participants ([1]; 100 mg BID): 1 (12.5%) n (%)
TEAE Abdominal pain, participants ([1]; 100 mg BID): 0 n (%)
TEAE Arthralgia, no. of AEs ([1]; 100 mg BID): 1
TEAE Arthralgia, participants ([1]; 100 mg BID): 1 (12.5%) n (%)
TEAE Constipation, no. of AEs ([1]; 100 mg BID): 2
TEAE Constipation, participants ([1]; 100 mg BID): 2 (25.0%) n (%)
TEAE Dysuria, participants ([1]; 100 mg BID): 0 n (%)
TEAE Gastrointestinal disorders, no. of AEs ([1]; 100 mg BID): 4
TEAE Gastrointestinal disorders, participants ([1]; 100 mg BID): 2 (25.0%) n (%)
TEAE Headache, participants ([1]; 100 mg BID): 0 n (%)
TEAE Injury, poisoning and procedural complications, participants ([1]; 100 mg BID): 0 n (%)
TEAE Limb injury, participants ([1]; 100 mg BID): 0 n (%)
TEAE Menstruation irregular, participants ([1]; 100 mg BID): 0 n (%)
TEAE Musculoskeletal and connective tissue disorders, no. of AEs ([1]; 100 mg BID): 2
TEAE Musculoskeletal and connective tissue disorders, participants ([1]; 100 mg BID): 1 (12.5%) n (%)
TEAE Nervous system disorders, participants ([1]; 100 mg BID): 0 n (%)
TEAE Pain in extremity, no. of AEs ([1]; 100 mg BID): 1
TEAE Pain in extremity, participants ([1]; 100 mg BID): 1 (12.5%) n (%)
TEAE Pollakiuria, no. of AEs ([1]; 100 mg BID): 2
TEAE Pollakiuria, participants ([1]; 100 mg BID): 2 (25.0%) n (%)
TEAE Renal and urinary disorders, no. of AEs ([1]; 100 mg BID): 2
TEAE Renal and urinary disorders, participants ([1]; 100 mg BID): 2 (25.0%) n (%)
TEAE Reproductive system and breast disorders, participants ([1]; 100 mg BID): 0 n (%)
Participants with a TEAE possibly related to treatment, GB1211 ([1]; Part B): 7
Number of TEAEs on GB1211 ([1]; Part B, all GB1211 doses): 16
Participants with TEAEs on GB1211 ([1]; Part B, all GB1211 doses): 7
Galectin-3-induced inhibition of immune checkpoint inhibitor binding [2]: reverses
